One block for each molecule: values may come before it.
Experiments:
A549 lung cancer cells = test: In-vitro cytotoxicity of aminopterin formulations (cell titer-glo); assay type: cell-based; conditions: Homo sapiens, A549, 72 h, read-out: IC50 (cell viability inhibited by 50%)
Description: (§1) Cells originally purchased from ATCC (A549, Panc-1, OVCAR3, and BXPC-3) were seeded in 96 well tissue culture plates to be 50% confluent by 24 hours. Cells were incubated at 37° C. with 5.0% CO2. Cells were treated with escalating doses of free aminopterin, crosslinked aminopterin formulation, uncrosslinked aminopterin formulation, and non drug-loaded micelle formulations 24 hours after plate seeding. Free aminopterin was dissolved in DMSO and administered to cells with a total volume of DMSO equal to or less than 0.0025%. Micelle formulations were re-suspended in biology grade water. Dilutions were done in deep well plates with cell media and water or DMSO (for free aminopterin only) equalizing displaced volume. Incubation media was aspirated from the 96 well plates and 100 μl of each dilution was added to the wells in triplicate and incubated over 72 hours at 37° C. with 5.0% CO2. Crosslinked and uncrosslinked non drug-loaded micelle formulations were administered at the four highest doses and were calculated at comparative mg/ml concentrations to drug-loaded micelle concentrations of delivery vehicle. […] Plates were briefly shaken to mix and luminescence readings were read on a plate reader. Luminescence reading for triplicate doses are averaged and divided by average luminescence readings from untreated cells on the same plate to calculate the % of viable cells per dose. […]

[1] = tested on: PANC-1 pancreatic (folate receptor +) cancer cells; test: as above; assay type: cell-based; conditions: Homo sapiens, PANC-1, 72 h, read-out: IC50 (cell viability inhibited by 50%)
Description: as §1

[2] = Rat pharmacokinetics of crosslinked cabizataxel micelles; set-up: species or system Fisher rats; conditions: Fisher, in vivo, iv, 5 mg/kg
Excerpt: The delivery vehicle for drug administration was isotonic saline.

[3] = set-up: species or system Fisher rats; conditions: Fisher, rat, in vivo, iv, 10 mg/kg
Description: The delivery vehicle for drug administration was isotonic saline. […] Samples were analyzed on a Waters Alliance 2695 equipped with a 2475 fluorescence detector (Ex=470 nm; Em=580). A 5 μL sample injection was made onto a Waters 4 μm Nova Pak C18 (3.9×150 mm) at 30° C. with a flow rate of 0.750 mL per minute of 10 mM phosphate buffer (pH=1.4), methanol and acetonitrile (gradient from 70/10/20 to 40/10/50 for buffer/methanol/acetonitrile was made over eight minutes). Analyte eluted at 5.9 minutes under these conditions, was normalized to the internal standard, and quantitated using a standard curve comprised of seven standards.

SMILES: Nc1nc(N)c2nc(CNc3ccc(C(=O)N[C@@H](CCC(=O)O)C(=O)O)cc3)cnc2n1 [Aminopterin, aminopterin]
IC50 (A549 lung cancer cells): 7 to 25 nM | IC50 [1]: 7 to 25 nM

Exposure of cabazitaxel to the plasma compartment over 15 minutes [2]: 0.2 µg·h/mL
SMILES: CO[C@H]1C(=O)[C@]2(C)[C@@H](OC)C[C@H]3OC[C@@]3(OC(C)=O)[C@H]2[C@H](OC(=O)c2ccccc2)[C@]2(O)C[C@H](OC(=O)[C@H](O)[C@@H](NC(=O)OC(C)(C)C)c3ccccc3)C(C)=C1C2(C)C [free cabizataxel, cabazitaxel]

CMax [3]: 3.3 µg/mL | Half-life [3]: 3.3 h
SMILES: COc1cccc2c1C(=O)c1c(O)c3c(c(O)c1C2=O)C[C@@](O)(C(C)=O)C[C@@H]3O[C@H]1C[C@H](N)[C@H](O)[C@H](C)O1 [free daunorubicin, daunorubicin]
